Source: patent publication US20130210823A1, “METHODS FOR C[…]” (SYNGENTA PARTICIPATIONS AG, priority 2010, published 2013)

System: Varroa destructor
Assay: Varroa mite contact test on Potter-tower treated Petri dishes
Format: in vivo
Conditions: adult V. destructor, contact with spray deposit, concentration of formulation 1 × 10^−−4 g, assessed after 72 h
Description: Varroa mites came from bee colonies provided by a beekeeper. The mite population is kept in a dedicated apiary. For screening needs adults are collected on the same day as the beginning of experiment, either in beehive cells containing brood of worker bees or drones, or directly on bees emerging during collection.
Bee nymphs needed to feed adults of Varroa mites during experiments are choosen within the frames from which Varroa is also collected. They are collected at the stage of nymph with white or pink coloured eyes according methology described by Rembold et Kremer (Characterization of postembryonic developmental stages of the female castes of the honey bee, Apis mellifera L. Apidologie 11: 29-38).
3 cm diameter Petri dishes were used as confinement material of Varroa mites during experiments. Covers with wire mesh were put on the top of each Petri dish in order to avoid the mites to run away but also to keep favorable humidity for the bee nymph. […]
After treatment of Petri dishes, five (5) adults of V. destructor collected from the brood were placed in the petri dish. […] During a test 20 Varroa adults are tested for a given compound (4 dishes of 5 individuals).Mortality levels are assessed after 72 h (mites which are able to move their legs are considered as alive). […]

CC1=NNC(=O)N(N=Cc2cccnc2)C1 [pymetrozine, 2,3,4,5-tetrahydro-3-oxo-4-[(pyridin-3-yl)methyleneamino]-6-methyl-1,2,4-triazine]
% mortality of Varroa: 90%
